Experimental data from PubChem BioAssay AID330 (DTP/NCI, 2004).
Toxic doses and inconclusive results are not listed. How the source made its calls: active means survival T/C of 150% or more; inactive means T/C below 125% in these data. Square brackets hold non-standard residues; d marks the D form. Peptide text beside a SMILES is read from it. ξ: configuration not given here. ξNle = CCCCC(N)C(=O)O

Tested on: P388 leukemia ip, CD2F1 mice, survival T/C
Assay: NCI In Vivo Anticancer Drug Screen. Data for tumor model P388 Leukemia (intraperitoneal) in CD2F1 (CDF1) mice
Details: endpoint: median survival time, higher = longer survival
How it was run: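 Mice carrying the transplanted tumor received test compound or vehicle. Survival was recorded in each group, and the value is the treated-group measurement divided by that of the vehicle-treated control group.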

[1] = dose: 50.0 mg/kg/injection, schedule: Q01DX005 (ip), vehicle: saline with Tween-80
[2] = dose: 100.0 mg/kg/injection, schedule: Q01DX005 (ip), vehicle: saline with Tween-80
[3] = dose: 200.0 mg/kg/injection, schedule: Q01DX005 (ip), vehicle: saline with Tween-80
[4] = dose: 25.0 mg/kg/injection, schedule: Q04DX003 (ip), vehicle: saline
[5] = dose: 50.0 mg/kg/injection, schedule: Q04DX003 (ip), vehicle: saline
[6] = dose: 100.0 mg/kg/injection, schedule: Q04DX003 (ip), vehicle: saline
[7] = dose: 60.0 mg/kg/injection, schedule: Q01DX005 (ip), vehicle: Klucel (hydroxypropylcellulose) (HPC)
[8] = dose: 120.0 mg/kg/injection, schedule: Q01DX005 (ip), vehicle: Klucel (hydroxypropylcellulose) (HPC)
[9] = dose: 240.0 mg/kg/injection, schedule: Q01DX005 (ip), vehicle: Klucel (hydroxypropylcellulose) (HPC)
[10] = dose: 25.0 mg/kg/injection, schedule: Q01DX009 (ip), vehicle: saline with Tween-80
[11] = dose: 50.0 mg/kg/injection, schedule: Q01DX009 (ip), vehicle: saline with Tween-80
[12] = dose: 100.0 mg/kg/injection, schedule: Q01DX009 (ip), vehicle: saline with Tween-80
[13] = dose: 200.0 mg/kg/injection, schedule: Q01DX009 (ip), vehicle: saline with Tween-80
[14] = dose: 50.0 mg/kg/injection, schedule: Q01DX005 (ip), vehicle: saline
[15] = dose: 100.0 mg/kg/injection, schedule: Q01DX005 (ip), vehicle: saline
[16] = dose: 200.0 mg/kg/injection, schedule: Q01DX005 (ip), vehicle: saline
[17] = dose: 12.5 mg/kg/injection, schedule: Q01DX009 (ip), vehicle: saline with Tween-80
[18] = dose: 50.0 mg/kg/injection, schedule: Q01DX009 (ip), vehicle: saline
[19] = dose: 100.0 mg/kg/injection, schedule: Q01DX009 (ip), vehicle: saline
[20] = dose: 60.0 mg/kg/injection, schedule: Q01DX005 (ip), vehicle: saline with Tween-80
[21] = dose: 120.0 mg/kg/injection, schedule: Q01DX005 (ip), vehicle: saline with Tween-80
[22] = dose: 240.0 mg/kg/injection, schedule: Q01DX005 (ip), vehicle: saline with Tween-80
[23] = dose: 50.0 mg/kg/injection, schedule: Q01DX005 (ip), vehicle: Klucel (hydroxypropylcellulose) (HPC)
[24] = dose: 100.0 mg/kg/injection, schedule: Q01DX005 (ip), vehicle: Klucel (hydroxypropylcellulose) (HPC)
[25] = dose: 200.0 mg/kg/injection, schedule: Q01DX005 (ip), vehicle: Klucel (hydroxypropylcellulose) (HPC)

Measured: T/C

CCCCC(NC(=O)CNC(=O)CN)C(=O)O (stereo not drawn) (H-Gly-Gly-[ξNle]-OH)
inactive: [1] 94 % of control | [2] 94 % of control | [3] 93 % of control

CCCCC(CN(C)C)C(=O)/C=C/c1ccccc1 (centres undefined)
inactive: dose: 60.0 mg/kg/injection, schedule: Q01DX005 (ip), vehicle: saline 109 % of control | dose: 120.0 mg/kg/injection, schedule: Q01DX005 (ip), vehicle: saline 123 % of control

[O-]/[N+](=C\c1ccccc1)C(c1ccccc1)c1ccccc1
inactive: [4] 100 % of control | [5] 100 % of control | [6] 100 % of control

CCOC(=O)c1c(C)noc1NC
inactive: [7] 100 % of control | [8] 101 % of control | [9] 100 % of control

CC1C[As+](c2ccccc2)(c2ccccc2)CC(C)N1C.[O-][Cl+3]([O-])([O-])[O-] (centres undefined)
inactive: [10] 100 % of control | [11] 104 % of control | [12] 106 % of control

CCCCCCCCCCCC(=O)OCCN(C=O)C[n+]1ccccc1
inactive: dose: 25.0 mg/kg/injection, schedule: Q04DX002 (ip), vehicle: saline 98 % of control | dose: 50.0 mg/kg/injection, schedule: Q04DX002 (ip), vehicle: saline 96 % of control | dose: 100.0 mg/kg/injection, schedule: Q04DX002 (ip), vehicle: saline 91 % of control

CC(=O)Oc1ccccc1C(=O)OC1CCN(C(C)C)C1 (centres undefined)
inactive: [6] 100 % of control | dose: 200.0 mg/kg/injection, schedule: Q04DX003 (ip), vehicle: saline 95 % of control

CSC(SC)=C1C(=O)NC(Cc2ccccc2)C1=O (centres undefined)
inactive: dose: 6.25 mg/kg/injection, schedule: Q01DX005 (ip), vehicle: saline with Tween-80 104 % of control | dose: 12.5 mg/kg/injection, schedule: Q01DX005 (ip), vehicle: saline with Tween-80 112 % of control | dose: 25.0 mg/kg/injection, schedule: Q01DX005 (ip), vehicle: saline with Tween-80 119 % of control

CCn1c2ccccc2c2cc(NC(=O)NC(=O)c3ccccc3)ccc21
inactive: [1] 90 % of control | [2] 90 % of control | [3] 87 % of control

CS(=O)(=O)OCC1CCSC1=O (centres undefined)
inactive: [11] 100 % of control | [12] 106 % of control | [13] 108 % of control

Cn1c(=O)n2n(c1=O)C1CCC2CC1
inactive: [14] 98 % of control | [15] 102 % of control | [16] 100 % of control

C=C1CC2C3CC=C4CC(OC(C)=O)CCC4(C)C3CCC2(C)C1=O (centres undefined)
inactive: [17] 94 % of control | [10] 92 % of control | [18] 104 % of control | [19] 110 % of control

CCOC(=O)c1cc2ccccc2c(-c2ccccc2)c1C(=O)OCC
inactive: dose: 100.0 mg/kg/injection, schedule: Q01DX001 (ip), vehicle: saline with Tween-80 97 % of control | dose: 200.0 mg/kg/injection, schedule: Q01DX001 (ip), vehicle: saline with Tween-80 96 % of control | dose: 400.0 mg/kg/injection, schedule: Q01DX001 (ip), vehicle: saline with Tween-80 90 % of control

Cc1cc(C)cc(C(=O)N=C(c2ccncc2)c2nc(-c3ccccc3)oc2O)c1
inactive: [20] 88 % of control | [21] 86 % of control | [22] 88 % of control

COc1cc(/C=C2\CN(C)C(=O)C2=O)ccc1O
inactive: [11] 100 % of control | [12] 108 % of control | [13] 109 % of control | dose: 400.0 mg/kg/injection, schedule: Q01DX009 (ip), vehicle: saline with Tween-80 108 % of control

O=C(Nc1ccc(Cl)cc1)NN1CCCCCC1
inactive: dose: 25.0 mg/kg/injection, schedule: Q04DX002 (ip), vehicle: saline with Tween-80 103 % of control | dose: 50.0 mg/kg/injection, schedule: Q04DX002 (ip), vehicle: saline with Tween-80 98 % of control

CC(C)NC(=O)C(C)O (centres undefined)
inactive: [14] 101 % of control | [15] 101 % of control | [16] 101 % of control

CC1(C)c2ccccc2-c2nc3ccccc3cc2C1(Br)Br
inactive: [1] 105 % of control | [2] 110 % of control | [3] 120 % of control

Cn1cc(/C=C/C(=O)c2ccccc2[N+](=O)[O-])c2ccccc21
inactive: [20] 95 % of control | [21] 89 % of control | [22] 89 % of control

CCCCN(CCCC)CCCNc1c2c(nc3ccccc13)CCCC2
inactive: dose: 12.5 mg/kg/injection, schedule: Q01DX005 (ip), vehicle: saline 95 % of control | dose: 25.0 mg/kg/injection, schedule: Q01DX005 (ip), vehicle: saline 104 % of control | [14] 100 % of control

CCNC(=O)OOC(C)(C)C
inactive: [18] 102 % of control | [19] 101 % of control

NNC(=O)C(NC=O)C(N)=O (centres undefined)
inactive: [17] 107 % of control | [10] 100 % of control | [11] 98 % of control | [18] 88 % of control | dose: 200.0 mg/kg/injection, schedule: Q01DX009 (ip), vehicle: saline 92 % of control

NCCC(=O)OC1CCCc2c(O)c3c(c(O)c21)C(=O)c1ccccc1C3=O (centres undefined)
inactive: dose: 3.12 mg/kg/injection, schedule: Q01DX009 (ip), vehicle: water 103 % of control | dose: 6.25 mg/kg/injection, schedule: Q01DX009 (ip), vehicle: water 94 % of control | dose: 12.5 mg/kg/injection, schedule: Q01DX009 (ip), vehicle: water 100 % of control | dose: 25.0 mg/kg/injection, schedule: Q01DX009 (ip), vehicle: water 93 % of control | dose: 50.0 mg/kg/injection, schedule: Q01DX009 (ip), vehicle: water 93 % of control

CN(C)C1CC2CCCCC2CC1O (centres undefined)
inactive: [4] 93 % of control | [5] 99 % of control | dose: 100.0 mg/kg/injection, schedule: Q01DX001 (ip), vehicle: saline 104 % of control | [6] 103 % of control | dose: 200.0 mg/kg/injection, schedule: Q01DX001 (ip), vehicle: saline 98 % of control

O=C1CC(C(=O)O)C(C(=O)O)O1 (centres undefined)
inactive: [14] 100 % of control | [15] 111 % of control | [16] 93 % of control

Cc1cc(Cl)ccc1NC(=O)N1CCCCC1
inactive: [7] 96 % of control | [8] 96 % of control | [9] 93 % of control

O=C(Cc1ccccc1)C(Br)C(Br)c1ccccc1 (centres undefined)
inactive: dose: 6.25 mg/kg/injection, schedule: Q01DX009 (ip), vehicle: saline with Tween-80 100 % of control | [17] 118 % of control | [10] 113 % of control

Nc1nc(C2CCCC2)c(Br)c(=O)[nH]1
inactive: [23] 101 % of control | [24] 103 % of control | [25] 105 % of control

CN(C)c1ccc(/[N+]([O-])=N/N2C(=O)c3ccccc3C2=O)cc1
inactive: dose: 25.0 mg/kg/injection, schedule: Q01DX005 (ip), vehicle: Klucel (hydroxypropylcellulose) (HPC) 105 % of control | [23] 97 % of control | [24] 101 % of control | [25] 110 % of control

CN(C)C1CC2CCCCC2CC1OC(=O)c1ccc([N+](=O)[O-])cc1 (centres undefined)
inactive: dose: 100.0 mg/kg/injection, schedule: Q04DX003 (ip), vehicle: saline with Tween-80 101 % of control | dose: 200.0 mg/kg/injection, schedule: Q04DX003 (ip), vehicle: saline with Tween-80 110 % of control | dose: 400.0 mg/kg/injection, schedule: Q04DX003 (ip), vehicle: saline with Tween-80 101 % of control

CCCSC(=O)Nc1cc(OC)ccc1OC
inactive: [20] 98 % of control | [21] 98 % of control | [22] 104 % of control

O=[N+]([O-])c1ccccc1C=Nc1ccc2nc(SCc3ccccc3)sc2c1
inactive: dose: 100.0 mg/kg/injection, schedule: Q04DX003 (ip), vehicle: Klucel (hydroxypropylcellulose) (HPC) 100 % of control | dose: 200.0 mg/kg/injection, schedule: Q04DX003 (ip), vehicle: Klucel (hydroxypropylcellulose) (HPC) 95 % of control | dose: 400.0 mg/kg/injection, schedule: Q04DX003 (ip), vehicle: Klucel (hydroxypropylcellulose) (HPC) 89 % of control

COc1ccc(C2C3CCCC(C(c4ccc(OC)cc4)N2C)C32NC(=O)NC2=O)cc1 (centres undefined)
inactive: [20] 90 % of control | [21] 90 % of control | [22] 91 % of control
